From patent US20080299598A1, “Detector Comprising a Membrane Perturbation - Detecting Polymer and Functional Membrane Fragments” (priority 2004, published 2008)

What was measured:
muscarinic receptor = test: Chromatic response (% CR) of the polydiacetylene construct made with crude membrane fragments from PC12 cells overexpressing the muscarinic receptor; assay type: binding; conditions: atropine up to 20 μM; 25 mM Tris base pH 8; compared with construct from regular PC12 crude membrane; FIG. 1
Method: PC12 cells overexpressing the muscarinic receptors were prepared using conventional transfection techniques, as described, for example, by Sadot et al. [Israel Journal of neurochemistry (1996 February), 66(2), 877-80.]
(§1) 20 μl of 10,12-tricosadionic acid taken from a stock solution in 60 mM chloroform/ethanol (1:1) are dried in vacuo up to constant weight. The dried material is then resuspended in 1.950 ml deionized water and subjected to probe sonication at 70° C. for 3 minutes. The solution thus obtained is then cooled for 15 minutes, and 50 μl of crude membrane from PC12 cells (prepared as described hereinabove and containing 10 mg/ml protein) is added thereto. The vesicle suspension obtained thereby is then subject to another round of sonication for 10 seconds, left to cool to room temperature and than stored at 4° C. overnight.
An aqueous stock solution containing Atropine at a concentration of 0.55 mg/ml was prepared. […]
The UV-vis spectroscopic measurements were carried out three times for each of the samples prepared, using a Jena Analytical Elisa-reader using 96 well microplates. The blue-to-red chromatic transitions were quantified using the chromatic response factor, as defined below:
where Ablue and Ared are the absorbance measured at about 640 nm and about 500 nm, respectively. […]

[1] = tested on: plasma membrane fragments obtained from PC12 cells; test: Chromatic response (% CR) of the polydiacetylene construct made with plasma membrane fragments from PC12 cells (detects membrane-permeating drugs); assay type: in vitro ADME; conditions: analyte up to 11 μM; 25 mM Tris base pH 8; FIG. 2
Method: FIG. 2 illustrates the detection of a drug molecule capable of permeating cellular membrane using the construct of the invention (comprising plasma membrane fragments obtained from PC12 cells and polydiacetylene).
as §1, with “plasma” for “crude”, “hereinabove)” for “hereinabove and containing 10 mg/ml protein)”
Aqueous stock solutions containing 5.2 mg/ml propranolol and 1.5 mg/ml amoxicillin were prepared. […]
FIG. 2 depicts the chromatic response factor calculated for various Propranol- or Amoxicillin-containing samples on the basis of the UV-vis spectra measured, versus the concentration of the analyte (that is, either Propranol or Amoxicillin) in said samples. […]

Compound	chromatic transition (% CR) (muscarinic receptor)	chromatic change (% CR) [1]
CN1[C@@H]2CC[C@H]1C[C@@H](OC(=O)C(CO)c1ccccc1)C2 (stereo partly drawn) [atropine, Atropine]	high % CR	–
CC(C)NCC(O)COc1cccc2ccccc12 (stereo not drawn) [propranolol]	–	high % CR
CC1(C)S[C@@H]2[C@H](NC(=O)[C@H](N)c3ccc(O)cc3)C(=O)N2[C@H]1C(=O)O [Amoxicillin]	–	very low % CR
